# In patent publication US6673902B2, “Cyclin D binding factor, and uses thereof” (St. Jude Children's Research Hospital, priority 1996, dated 2004):
# Experiments:
# [1] = test system: wild-type MEFs; assay: Apoptosis assay in wild-type MEFs deprived of serum; type: cell-based, mouse
# Method: Apoptosis assays. Wild-type MEFs infected with the indicated retroviruses for 36 hours were starved for serum for 24 hours. Viability was determined by trypan blue dye exclusion, and DNA fragmentation was monitored by a terminal deoxynuclectidyl transferase (FACS-TUNEL) assay and by measurement of subdiploid DNA content of propidium iodide-stained nuclei [Zindy et al., Genes Dev. 12:2424-2433 (1998)].
# On the other hand, MEFs overexpressing c-Myc, E2F-1, or E1A are exquisitely sensitive to apoptosis. […] 12:2424-2433 (1998); De Stanchina et al., Genes Dev. 12:2434-2442 (1998)].
# [2] = test system: ARF-null MEFs; assay: BrdU incorporation / cell cycle arrest in ARF-null MEFs; type: cell-based, mouse; settings: retroviral infection
# Method: BrdU incorporation and immunofluorescence. Wild-type or ARF-null MEFs (4×10^4 cells) were seeded on gelatin-coated coverslips 16 hours before virus infection. Cells were infected three times with empty vector, or vectors expressing murine DMP1, human c-Myc, human E2F-1, or human Ets1. Cells were labeled 36 hours after virus infection with bromodeoxyuridine (BrdU, Sigma) for 14 hours in complete medium. For pulse labeling, MEFs were treated with 2 μM4-HT for 36 hours and labeled with BrdU for three hours at different intervals throughout the inductive phase. Cells were fixed in ice-cold methanol-acetone (1:1) for 10 min at −20° C. and then were stained with affinity-purified antibodies to DMP1 (AF) [Hirai and Sherr, Mol. Cell. […]
# Based on the above observations, it was determined as to whether introduction of DMP1 would induce synthesis of the endogenous ARF protein in normal diploid fibroblast strains. […] Although the blot was normalized for protein input, the levels of p19^ARF induced by DMP1 were calculated to be 2-fold higher than those induced by Myc, because fewer cells were productively infected with the DMP1 virus in this experiment (see FIG. 15A).
# [3] = test system: D-type cyclins; assay: Co-expression with D-type cyclins in Sf9 cells and co-precipitation; type: binding, mouse
# Method: BamHI linkers are added to an XbaI-EcoRV cDNA fragment containing the entire DMP1 coding sequence, and the fragment is inserted into the BamHI site of the pAcYM1 baculovirus vector (37). Production of virus and infection of Spodoptera frugiperda (Sf9) cells are performed as previously described (23). For preparation of radiolabeled cell lysates, cells infected with the indicated recombinant viruses encoding DMP1, CDKs, and/or cyclins are metabolically labeled 40 hours post-infection for 8 additional hours with 50 uCi/ml of [^35S]methionine (1000 Ci/mmol; ICN, Irvine Calif.) in methionine-free medium or for 4 additional hours with 250 uCi/ml of carrier-free ^32P-orthophosphate (9000 Ci/mmol, Amersham) in phosphate-free medium. Cells suspended in 0.25 ml Kinase buffer containing protease and phosphatase inhibitors [2.5 mM EGTA, 0.1 mM phenylmethyl sulfonylfluoride (PMSF), 2% aprotinin, 1 mM β-glycerophosphate, 0.1 mM Na3VO4, and 0.1 mM NaF] are lysed by repeated freezing and thawing and clarified by centrifuigation. […]
# We next co-expressed full length DMP1 together with D-type cyclins under baculovirus vector control in insect Sf9 cells. […] Electrophoretic separation of unfractionated metabolically labeled lysates from infected cells enabled direct autoradiographic visualization and relative quantitation of the recombinant mouse proteins (FIG. 3A). […]
substance,measurement,setting,value
"DMP1: murine cyclin D-associated myb-like transcription factor, 761 amino acids, SEQ ID NO:1",apoptosis / cell death,[1],did not trigger apoptosis
same,cell cycle arrest,[2],refractory
same,DMP1 molecules forming stable complexes with D-type cyclins,[3]; coexpressed in Sf9 cells,≤ 15%
same,cyclin stably bound,"[3]; coinfected Sf9 cells, approximately equivalent levels of protein and cyclin D2 or cyclin D3",5-15%
